Test results from patent US8623899B2, “Bis-benzimidazole derivatives as hepatitis C virus inhibitors” (Janssen Research & Development Ireland, priority 2009, dated 2014).

test system: HCV type 1b replicon in Huh-7 luc/neo (Huh-Luc) cells; test: HCV replicon assay (Huh-Luc, luciferase readout); type: cell-based; conditions: Hepatitis C virus, Huh-7, 72 h, luciferase activity, incubation of three days, read-out: HCV-REP-HUH7LUC_EC50
Text: The compounds of formula (I) were examined for inhibitory activity in the HCV replicon. This cellular assay is based on a bicistronic expression construct, as described by Lohmann et al. (1999) Science vol. 285 pp. 110-113 with modifications described by Krieger et al. (2001) Journal of Virology 75: 4614-4624, in a multi-target screening strategy.
In essence, the method was as follows:
The assay utilized the stably transfected cell line Huh-7 luc/neo (hereafter referred to as Huh-Luc). This cell line harbors an RNA encoding a bicistronic expression construct comprising the wild type NS3-NS5B regions of HCV type 1b translated from an Internal Ribosome Entry Site (IRES) from encephalomyocarditis virus (EMCV), preceded by a reporter portion (FfL-luciferase), and a selectable marker portion (neo^R, neomycine phosphotransferase). The construct is flanked by 5′ and 3′ NTRs (non-translated regions) from HCV type 1b. Continued culture of the replicon cells in the presence of G418 (neo^R) is dependent on the replication of the HCV RNA. The stably transfected replicon cells that express HCV RNA, which replicates autonomously and to high levels, encoding inter alia luciferase, were used for screening the antiviral compounds.
The replicon cells were plated in 384 well plates in the presence of the test and control compounds which were added in various concentrations. Following an incubation of three days, HCV replication was measured by assaying luciferase activity (using standard luciferase assay substrates and reagents and a Perkin Elmer ViewLux™ ultraHTS microplate imager). Replicon cells in the control cultures have high luciferase expression in the absence of any inhibitor. The inhibitory activity of the compound on luciferase activity was monitored on the Huh-Luc cells, enabling a dose-response curve for each test compound. EC50 values were then calculated, which represent the amount of compound required to decrease the level of detected luciferase activity by 50%, or more specifically, to reduce the ability of the genetically linked HCV replicon RNA to replicate.

Structure (SMILES)	EC50 [nM]
COC(=O)NC1(C(=O)N2CCC[C@H]2c2nc3ccc(-c4ccc(-c5ccc6nc([C@@H]7CCCN7C(=O)C7(NC(=O)OC)CC7)[nH]c6c5)cc4)cc3[nH]2)CC1 [Compound 9]	1
O=C([C@H](O)c1cccc(Cl)c1)N1CCC[C@H]1c1nc2ccc(-c3ccc(-c4ccc5nc([C@@H]6CCCN6C(=O)[C@H](O)c6cccc(Cl)c6)[nH]c5c4)cc3)cc2[nH]1 [Compound 49]	0.027
O=C(C(O)Cc1cccnc1)N1CCC[C@H]1c1nc2ccc(-c3ccc(-c4ccc5nc([C@@H]6CCCN6C(=O)C(O)Cc6cccnc6)[nH]c5c4)cc3)cc2[nH]1 (mixture of isomers) [Compound 35]	22
O=C([C@@H](c1ccccc1)N1CCCC1)N1CCC[C@H]1c1nc2ccc(-c3ccc(-c4ccc5nc([C@@H]6CCCN6C(=O)[C@@H](c6ccccc6)N6CCCC6)[nH]c5c4)cc3)cc2[nH]1 [Compound 45]	0.051
COC(=O)N[C@H](C(=O)N1CCC[C@H]1c1nc2ccc(-c3ccc(-c4ccc5nc([C@@H]6CCCN6C(=O)[C@@H](NC(=O)OC)C(C)C)[nH]c5c4)cc3)cc2[nH]1)C(C)C [Compound 30]	0.006
COCC[C@H](NC(=O)OC)C(=O)N1CCC[C@H]1c1nc2ccc(-c3ccc(-c4ccc5nc([C@@H]6CCCN6C(=O)[C@H](CCOC)NC(=O)OC)[nH]c5c4)cc3)cc2[nH]1 [Compound 51]	0.012
O=C([C@H](O)c1ccccc1Cl)N1CCC[C@H]1c1nc2ccc(-c3ccc(-c4ccc5nc([C@@H]6CCCN6C(=O)[C@H](O)c6ccccc6Cl)[nH]c5c4)cc3)cc2[nH]1 [Compound 48]	0.011
O=C(Cc1ccccc1OC(F)(F)F)N1CCC[C@H]1c1nc2ccc(-c3ccc(-c4ccc5nc([C@@H]6CCCN6C(=O)Cc6ccccc6OC(F)(F)F)[nH]c5c4)cc3)cc2[nH]1 [Compound 11]	160
CC(C)(C)OC(=O)N[C@@H](C(=O)N1CCC[C@H]1c1nc2ccc(-c3ccc(-c4ccc5nc([C@@H]6CCCN6C(=O)[C@H](NC(=O)OC(C)(C)C)c6ccccc6)[nH]c5c4)cc3)cc2[nH]1)c1ccccc1 [Compound 38]	0.014
O=C([C@@H](c1ccccc1)N1CCOCC1)N1CCC[C@H]1c1nc2ccc(-c3ccc(-c4ccc5nc([C@@H]6CCCN6C(=O)[C@@H](c6ccccc6)N6CCOCC6)[nH]c5c4)cc3)cc2[nH]1 [Compound 46]	0.022
COC(=O)N[C@@H](C(=O)N1CCCC1c1nc2ccc(-c3ccc(-c4ccc5nc([C@@H]6CCCN6C(=O)[C@H](NC(=O)OC)c6ccccc6)[nH]c5c4)cc3)cc2[nH]1)c1ccccc1 (stereo partly shown) [Compound 39]	0.0067
CC(C)[C@H](O)C(=O)N1CCC[C@H]1c1nc2ccc(-c3ccc(-c4ccc5nc([C@@H]6CCCN6C(=O)[C@@H](O)C(C)C)[nH]c5c4)cc3)cc2[nH]1 [Compound 33]	110
COC(=O)N[C@H](C(=O)N1CCC[C@H]1c1nc2cc(-c3ccc(-c4ccc5nc([C@@H]6CCCN6C(=O)[C@@H](NC(=O)OC)C6CC6)[nH]c5c4)cc3)ccc2[nH]1)C1CC1 [Compound 40]	0.014
CN(C)CCC(=O)N1CCC[C@H]1c1nc2ccc(-c3ccc(-c4ccc5nc([C@@H]6CCCN6C(=O)CCN(C)C)[nH]c5c4)cc3)cc2[nH]1 [Compound 18]	49
CC(C)[C@@H](C(=O)N1CCC[C@H]1c1nc2ccc(-c3ccc(-c4ccc5nc([C@@H]6CCCN6C(=O)[C@H](C(C)C)N(C)C)[nH]c5c4)cc3)cc2[nH]1)N(C)C [Compound 28]	70
CCN(C1CC1)[C@@H](C(=O)N1CCC[C@H]1c1nc2ccc(-c3ccc(-c4ccc5nc([C@@H]6CCCN6C(=O)[C@@H](c6ccccc6)N(CC)C6CC6)[nH]c5c4)cc3)cc2[nH]1)c1ccccc1 [Compound 42]	0.063
CN(C)[C@@H](C(=O)N1CCC[C@H]1c1nc2ccc(-c3ccc(-c4ccc5nc([C@@H]6CCCN6C(=O)[C@@H](c6ccccc6)N(C)C)[nH]c5c4)cc3)cc2[nH]1)c1ccccc1 [Compound 36]	0.073
O=C(c1ccoc1)N1CCC[C@H]1c1nc2ccc(-c3ccc(-c4ccc5nc([C@@H]6CCCN6C(=O)c6ccoc6)[nH]c5c4)cc3)cc2[nH]1 [Compound 21]	58
O=C(CC1CCCCC1)N1CCC[C@H]1c1nc2ccc(-c3ccc(-c4ccc5nc([C@@H]6CCCN6C(=O)CC6CCCCC6)[nH]c5c4)cc3)cc2[nH]1 [Compound 29]	550
COC(=O)NC(C(=O)N1CCC[C@H]1c1nc2ccc(-c3ccc(-c4ccc5nc([C@@H]6CCCN6C(=O)C(NC(=O)OC)C6CCOCC6)[nH]c5c4)cc3)cc2[nH]1)C1CCOCC1 (mixture of isomers) [Compound 55]	0.18

Structure (SMILES)	EC50 [nM]
O=C([C@H](O)c1ccccc1)N1CCC[C@H]1c1nc2ccc(-c3ccc(-c4ccc5nc([C@@H]6CCCN6C(=O)[C@H](O)c6ccccc6)[nH]c5c4)cc3)cc2[nH]1 [Compound 34]	0.0037
CC(C)OC(=O)N[C@H](C(=O)N1CCC[C@H]1c1nc2ccc(-c3ccc(-c4ccc5nc([C@@H]6CCCN6C(=O)[C@@H](NC(=O)OC(C)C)C(C)C)[nH]c5c4)cc3)cc2[nH]1)C(C)C [Compound 52]	> 98
O=C([C@@H](c1ccccc1)N1CCCCC1)N1CCC[C@H]1c1nc2ccc(-c3ccc(-c4ccc5nc([C@@H]6CCCN6C(=O)[C@@H](c6ccccc6)N6CCCCC6)[nH]c5c4)cc3)cc2[nH]1 [Compound 20]	0.061
O=C(Cc1ccc2c(c1)OCO2)N1CCC[C@H]1c1nc2ccc(-c3ccc(-c4ccc5nc([C@@H]6CCCN6C(=O)Cc6ccc7c(c6)OCO7)[nH]c5c4)cc3)cc2[nH]1 [Compound 16]	69
O=C(Cc1ccccc1)N1CCC[C@H]1c1nc2ccc(-c3ccc(-c4ccc5nc([C@@H]6CCCN6C(=O)Cc6ccccc6)[nH]c5c4)cc3)cc2[nH]1 [Compound 1]	0.1
O=C(c1ccc(F)cc1)N1CCC[C@H]1c1nc2ccc(-c3ccc(-c4ccc5nc([C@@H]6CCCN6C(=O)c6ccc(F)cc6)[nH]c5c4)cc3)cc2[nH]1 [Compound 27]	240
O=C([C@@H](O)c1ccccc1)N1CCC[C@H]1c1nc2ccc(-c3ccc(-c4ccc5nc([C@@H]6CCCN6C(=O)[C@@H](O)c6ccccc6)[nH]c5c4)cc3)cc2[nH]1 [Compound 7]	0.057
CC(C)C[C@@H](C(=O)N1CCC[C@H]1c1nc2ccc(-c3ccc(-c4ccc5nc([C@@H]6CCCN6C(=O)[C@H](CC(C)C)N(C)C)[nH]c5c4)cc3)cc2[nH]1)N(C)C [Compound 26]	76
CC(C)[C@@H](C(=O)N1CCC[C@H]1c1nc2ccc(-c3ccc(-c4ccc5nc([C@@H]6CCCN6C(=O)[C@H](C(C)C)N6CCCNC6=O)[nH]c5c4)cc3)cc2[nH]1)N1CCCNC1=O [Compound 54]	0.065
CCC(=O)N[C@@H](C(=O)N1CCC[C@H]1c1nc2ccc(-c3ccc(-c4ccc5nc([C@@H]6CCCN6C(=O)[C@H](NC(=O)CC)c6ccccc6)[nH]c5c4)cc3)cc2[nH]1)c1ccccc1 [Compound 22]	0.034
COC(=O)N[C@H](C(=O)N1CCC[C@H]1c1nc2cc(-c3ccc(-c4ccc5nc([C@@H]6CCCN6C(=O)[C@@H](NC(=O)OC)[C@@H](C)OC)[nH]c5c4)cc3)ccc2[nH]1)[C@@H](C)OC [Compound 2]	0.021
CN(C)C(C(=O)N1CCC[C@H]1c1nc2ccc(-c3ccc(-c4ccc5nc([C@@H]6CCCN6C(=O)C(c6ccc(Cl)cc6)N(C)C)[nH]c5c4)cc3)cc2[nH]1)c1ccc(Cl)cc1 (stereo partly shown) [Compound 5]	0.59
CC(=O)N[C@@H](C(=O)N1CCC[C@H]1c1nc2ccc(-c3ccc(-c4ccc5nc([C@@H]6CCCN6C(=O)[C@H](NC(C)=O)c6ccccc6)[nH]c5c4)cc3)cc2[nH]1)c1ccccc1 [Compound 4]	0.18
O=C(C(=O)N1CCC[C@H]1c1nc2ccc(-c3ccc(-c4ccc5nc([C@@H]6CCCN6C(=O)C(=O)c6ccccc6)[nH]c5c4)cc3)cc2[nH]1)c1ccccc1 [Compound 15]	40
O=C(CCc1cccnc1)N1CCC[C@H]1c1nc2ccc(-c3ccc(-c4ccc5nc([C@@H]6CCCN6C(=O)CCc6cccnc6)[nH]c5c4)cc3)cc2[nH]1 [Compound 13]	0.5
Cc1nc(C(=O)N2CCC[C@H]2c2nc3ccc(-c4ccc(-c5ccc6nc([C@@H]7CCCN7C(=O)c7nc(C)oc7C)[nH]c6c5)cc4)cc3[nH]2)c(C)o1 [Compound 24]	1.4
COc1c(F)cc(CC(=O)N2CCC[C@H]2c2nc3ccc(-c4ccc(-c5ccc6nc([C@@H]7CCCN7C(=O)Cc7cc(F)c(OC)c(F)c7)[nH]c6c5)cc4)cc3[nH]2)cc1F [Compound 10]	130
O=C(c1cccnc1)N1CCC[C@H]1c1nc2ccc(-c3ccc(-c4ccc5nc([C@@H]6CCCN6C(=O)c6cccnc6)[nH]c5c4)cc3)cc2[nH]1 [Compound 31]	280
O=C(C(c1ccccc1)n1ccnc1)N1CCC[C@H]1c1nc2ccc(-c3ccc(-c4ccc5nc([C@@H]6CCCN6C(=O)C(c6ccccc6)n6ccnc6)[nH]c5c4)cc3)cc2[nH]1 (stereo partly shown) [Compound 19]	0.45
CCC(=O)N[C@H](C(=O)N1CCC[C@H]1c1nc2ccc(-c3ccc(-c4ccc5nc([C@@H]6CCCN6C(=O)[C@@H](NC(=O)CC)C(C)C)[nH]c5c4)cc3)cc2[nH]1)C(C)C [Compound 53]	4
